The values below come from ChEMBL document CHEMBL1151457, “Colistin heteroresistance in acinetobacter and its association with previous colistin therapy” (Antimicrob Agents Chemother, 2008).

Format in all cases: functional, organism-based
In assay [1] the test system is Acinetobacter. The assay is described as follows: Antibacterial activity against heteroresistant Acinetobacter baumannii-calcoaceticus complex isolated from total cumulative patients preexposed to 325 to 900 mg of drug after 20 to 24 hrs by broth microdilution method.
Assay [2] concerns Acinetobacter. The assay is described as follows: Antimicrobial activity against susceptible-Acinetobacter baumannii-calcoaceticus complex isolated from patients after 20 to 24 hrs by broth microdilution method.
The subject of assay [3] is Acinetobacter. The assay is described as follows: Antibacterial activity against Acinetobacter baumannii-calcoaceticus complex assessed as colony forming unit at 8 ug/ml after 20 to 24 hrs by broth microdilution method.
Assay [4] concerns Acinetobacter. The assay is described as follows: Antibacterial activity against heteroresistant Acinetobacter baumannii-calcoaceticus complex isolated from total cumulative patients preexposed to 325 to 900 mg of drug at 4 ug/ml after 20 to 24 hrs by broth microdilution method.
The subject of assay [5] is Acinetobacter. The assay is described as follows: Antibacterial activity against heteroresistant Acinetobacter baumannii-calcoaceticus complex isolated from total cumulative patients preexposed to 325 to 900 mg of drug at 2 ug/ml after 20 to 24 hrs by broth microdilution method.
The subject of assay [6] is Acinetobacter. The assay is described as follows: Antimicrobial activity against heteroresistant-Acinetobacter baumannii-calcoaceticus complex isolated from patients after 20 to 24 hrs by broth microdilution method.
In assay [7] the test system is Acinetobacter. The assay is described as follows: Antibacterial activity against heteroresistant Acinetobacter baumannii-calcoaceticus complex isolated from total cumulative patients preexposed to 325 to 900 mg of drug measured after two passages with 8 ug/ml of drug on sheep blood plates by broth microdilution method.
Assay [8] concerns Acinetobacter. The assay is described as follows: Antibacterial activity against heteroresistant Acinetobacter baumannii-calcoaceticus complex isolated from total cumulative patients preexposed to 325 to 900 mg of drug assessed as colony forming unit at 8 ug/ml after 20 to 24 hrs by broth microdilution method.

Calls of active or inactive are those of the source. The rule behind the calls is not given here. Bounds are passed on as bounds.

Take `CC1(C)[C@H](C(=O)O)N2C(=O)C[C@H]2S1(=O)=O`: the result with Acinetobacter [1] was Active.

As to COLISTIN, the MIC (commonly the lowest concentration found to suppress growth) in the assay with Acinetobacter [2] was < 1 µg/mL; with Acinetobacter [6], > 8 µg/mL; in the assay with Acinetobacter [7], > 16 µg/mL. In addition, the results for the Activity with Acinetobacter [3] and in the assay with Acinetobacter [8] were 5.3e-05% and 0.000211%, respectively. Also, the result with Acinetobacter [4] and in the assay with Acinetobacter [5] was inactive.

With GENTAMICIN, in the assay with Acinetobacter [1], the result was Active.
